Type in all cases: in vivo
Assay [1] concerns Southern armyworm (Spodoptera eridania), 2nd instar larvae. The assay is described as follows: B.3 Southern armyworm, 2nd instar larvae, foliar spray on lima bean plants. The note with it: 96 h, 4 days after treatment, read-out: mortality in comparison with untreated controls. How it is done:
B.3 Southern Armyworm (Spodoptera eridania), 2nd Instar Larvae
The active compounds were formulated by a Tecan liquid handler in 100% cyclohexanone as a 10,000-ppm solution supplied in tubes. The 10,000-ppm solution was serially diluted in 100% cyclohexanone to make interim solutions. These served as stock solutions for which final dilutions were made by the Tecan in 50% acetone:50% water (v/v) into 10 or 20 ml glass vials. A non-ionic surfactant (Kinetic@) was included in the solution at a volume of 0.01% (v/v). The vials were then inserted into an automated electrostatic sprayer equipped with an atomizing nozzle for application to plants/insects. Lima bean plants (variety Sieva) were grown 2 plants to a pot and selected for treatment at the 1st true leaf stage. Test solutions were sprayed onto the foliage by an auto-mated electrostatic plant sprayer equipped with an atomizing spray nozzle. The plants were dried in the sprayer fume hood and then removed from the sprayer. Each pot was placed into perforated plastic bags with a zip closure. Ten to 11 armyworm larvae were placed into the bag and the bags zipped closed. Test plants were maintained in a growth room at about 25° C. and about 20-40% relative humidity for 4 days, avoiding direct exposure to fluorescent light (14:10 light:dark photoperiod) to prevent trapping of heat inside the bags. Mortality and reduced feeding were assessed 4 days after treatment, compared to untreated control plants.

The subject of assay [2] is boll weevil (Anthonomus grandis). The assay is described as follows: B.2 Boll weevil, 96-well microtiter plate diet test with eggs. The note with it: Anthonomus grandis; for mortality at 2500 ppm: 120 h, egg and larval mortality after 5 days, read-out: mortality in comparison with untreated controls. How it is done:
(§1) If not otherwise specified, the test solutions were prepared as follow: The active compound was dissolved at the desired concentration in a mixture of 1:1 (vol:vol) distilled water:acetone. The test solution was prepared on the day of use.
B.2 Boll Weevil (Anthonomus grandis)
For evaluating control of boll weevil (Anthonomus grandis) the test unit consisted of 96-well-microtiter plates containing an insect diet and 5-10 A. grandis eggs.
The compounds were formulated using a solution containing 75% v/v water and 25% v/v DMSO. Different concentrations of formulated compounds were sprayed onto the insect diet at 5 μl, using a custom-built micro atomizer, at two replications.
After application, microtiter plates were incubated at about 25±1° C. and about 75±5% relative humidity for 5 days. Egg and larval mortality was then visually assessed.

The subject of assay [3] is tobacco budworm (Heliothis virescens). As to the kind of experiment: B.1 Tobacco budworm, 96-well microtiter plate diet test with eggs. Particulars: for mortality at 2500 ppm: 120 h, egg and larval mortality after 5 days, read-out: mortality in comparison with untreated controls. How it is done:
as §1
B.1 Tobacco Budworm (Heliothis virescens)
For evaluating control of tobacco budworm (Heliothis virescens) the test unit consisted of 96-well-microtiter plates containing an insect diet and 15-25 H. virescens eggs.
The compounds were formulated using a solution containing 75% v/v water and 25% v/v DMSO. Different concentrations of formulated compounds were sprayed onto the insect diet at 10 μl, using a custom-built micro atomizer, at two replications.
After application, microtiter plates were incubated at about 28±1° C. and about 80±5% relative humidity for 5 days. Egg and larval mortality was then visually assessed.

Assay [4] concerns green peach aphid (Myzus persicae). The assay is described as follows: B.6 Green peach aphid, systemic test with artificial diet under membrane. How it is done:
as §1
B.6 Green Peach Aphid (Myzus persicae)
For evaluating control of green peach aphid (Myzus persicae) through systemic means, the test unit consisted of 96-well-microtiter plates containing liquid artificial diet under an artificial membrane.
The compounds were formulated using a solution containing 75% v/v water and 25% v/v DMSO. Different concentrations of formulated compounds were pipetted into the aphid diet, using a custom built pipetter, at two replications.
After application, 5-8 adult aphids were placed on the artificial membrane inside the microtiter plate wells. The aphids were then allowed to suck on the treated aphid diet and incubated at about 23±1° C. and about 50±5% relative humidity for 3 days. Aphid mortality and fecundity was then visually assessed.

Assay [5] deals with yellow fever mosquito (Aedes aegypti). As to the kind of experiment: whole plant or invertebrate. Particulars: for mortality at 90 ppm: comparative experiment C.4, read-out: B.5, 90 ppm (mortality); for mortality at 2500 ppm: 48 h, larval mortality after 2 days, read-out: mortality in comparison with untreated controls. How it is done:
as §1
B.5 Yellow Fever Mosquito (Aedes aegypti)
For evaluating control of yellow fever mosquito (Aedes aegypti) the test unit consisted of 96-well-microtiter plates containing 200 μl of tap water per well and 5-15 freshly hatched A. aegypti larvae.
The active compounds were formulated using a solution containing 75% (v/v) water and 25% (v/v) DMSO. Different concentrations of formulated compounds or mixtures were sprayed onto the insect diet at 2.5 μl, using a custom-built micro atomizer, at two replications.
After application, microtiter plates were incubated at 281° C., 80±5% RH for 2 days. Larval mortality was then visually assessed.

The mark [6] stands for this setting: 72 h, aphid mortality after 3 days, read-out: mortality in comparison with untreated controls.

As a reminder, the mortality is the share of the test organisms that died.

The structures appear in SMILES notation. Where two headings read alike, the source gives them in different places.

Turning to `CC(NC(=O)c1cc(C(F)(F)F)cc(C(F)(F)F)c1)c1nccnc1-n1cc(-c2ccncn2)cn1` (stereo not drawn) [I-42], the mortality at 300 ppm in assay [1] is ≥ 75%. The mortality at 2500 ppm in assay [2], in assay [3], in assay [4] (setting [6]) and in assay [5] was ≥ 75% in each case. Further, the mortality at 90 ppm in assay [2] (comparative experiment C.4) and in assay [5] was 100% throughout. The mortality at 30 ppm in assay [4] (comparative experiment C.4) came to 100%.

With `CC(NC(=O)c1cc(C(F)(F)F)cc(C(F)(F)F)c1)c1nccnc1-n1cc(-c2cccnc2)nn1` (stereo not drawn) [I-9], in assay [1], the mortality at 300 ppm was ≥ 75%. Moreover, the mortality at 2500 ppm in assay [2], in assay [3], in assay [4] (setting [6]) and in assay [5] was ≥ 75% in each case. In assay [2] (30 ppm, comparative experiment C.3), this compound registered a mortality at 30 ppm of 100%. The same compound had a mortality at 90 ppm in assay [4] (90 ppm, comparative experiment C.3) of 100%.

Consider `CC(NC(=O)c1cc(C(F)(F)F)cc(C(F)(F)F)c1)c1nccnc1-n1cc(S(C)(=O)=O)cn1` (stereo not drawn) [I-17, N-[1-[3-(4-methylsulfonylpyrazol-1-yl)pyrazin-2-yl]ethyl]-3,5-bis(trifluoromethyl)benzamide], for which, in assay [1], the mortality at 300 ppm is ≥ 75%. The mortality at 2500 ppm in assay [2] is ≥ 75%; in assay [3], ≥ 75%; in assay [4] (comparative experiment C.5, read-out: B.6, 2500 ppm (mortality)), 100%; in assay [4] (setting [6]), ≥ 75%; in assay [5], ≥ 75%. This compound registered a mortality at 90 ppm in assay [2] (comparative experiment C.5) of 100%. The mortality at 80 ppm in assay [5] (80 ppm, comparative experiment C.5, read-out: B.5, 80 ppm (mortality)) came out at 100%.

With `CC(NC(=O)c1cc(C(F)(F)F)cc(C(F)(F)F)c1)c1nccnc1-n1ncc(-c2cccnc2)n1` (stereo not drawn) [I-8], in assay [1], the mortality at 300 ppm is ≥ 75%. Further, the mortality at 2500 ppm in assay [2], in assay [3], in assay [4] (setting [6]) and in assay [5] was ≥ 75% in each case. The same compound came in with a mortality at 30 ppm in assay [4] (comparative experiment C.2) of 100%.

With `CSc1cnn(-c2c(Cl)ccnc2C(C)NC(=O)c2cc(C(F)(F)F)cc(C(F)(F)F)c2)c1` (stereo not drawn) [I-26, N-[1-[4-chloro-3-(4-methylsulfanylpyrazol-1-yl)-2-pyridyl]ethyl]-3,5-bis(trifluoromethyl)benzamide], the mortality at 300 ppm in assay [1] is ≥ 75%. In addition, the mortality at 2500 ppm in assay [2], in assay [3] and in assay [5] was ≥ 75% each time.

On to `CC(NC(=O)c1cc(C(F)(F)F)cc(C(F)(F)F)c1)c1nccnc1-n1ncc(-c2ccccn2)n1` (stereo not drawn) [I-14, N-[1-[3-[4-(2-pyridyl)triazol-2-yl]pyrazin-2-yl]ethyl]-3,5-bis(trifluoro-methyl)benzamide], for which the mortality at 300 ppm in assay [1] is ≥ 75%. Further, the mortality at 2500 ppm in assay [2], in assay [3], in assay [4] (setting [6]) and in assay [5] was ≥ 75% in each case. In assay [3] (90 ppm, comparative experiment C.1), this compound had a mortality at 90 ppm of 100%. This compound displayed a mortality at 30 ppm in assay [4] (comparative experiment C.1) of 100%.

For `CC(NC(=O)c1cc(C(F)(F)F)cc(C(F)(F)F)c1)c1nccnc1-n1cc(-c2nccs2)cn1` (stereo not drawn) [I-51], the mortality at 300 ppm in assay [1] is ≥ 75%. The mortality at 2500 ppm in assay [2], in assay [3], in assay [4] (setting [6]) and in assay [5] was ≥ 75% throughout. Besides, the mortality at 90 ppm in assay [2] (comparative experiment C.4) and in assay [5] was 100% in each case. Besides, in assay [4] (comparative experiment C.4), the mortality at 30 ppm worked out at 100%.

The values above are taken from patent US20260206754A1, “HETEROARYL COMPOUNDS FOR THE CONTROL OF INVERTEBRATE PESTS” (priority 2022, published 2026).
